Data as given in patent publication US20140163026A1, “8-ETHYL-6-(ARYL)PYRIDO[2,3-D]PYRIMIDIN-7(8H)-ONES FOR THE TREATMENT OF NERVOUS SYSTEM DISORDERS AND CANCER” (Afraxis Holdings, Inc., priority 2011, published 2014).

Legend:
Format in all cases: biochemical
PAK3 = PAK3 (Homo sapiens, UniProt O75914); experiment: In vitro PAK inhibition assay (SelectScreen, Ser/Thr 20 peptide)
Protocol: (§1) Compounds are screened in 1% DMSO (final) in the well. For 10 point titrations, 3-fold serial dilutions are conducted.
(§2) All Peptide/Kinase Mixtures are diluted to a 2× working concentration in the appropriate Kinase Buffer
The 2×PAK3/Ser/Thr 20 mixture is prepared in 50 mM HEPES pH 7.5, 0.01% BRIJ-35, 10 mM MgCl2, 1 mM EGTA.
(§3) This control yields 100% cleaved peptide in the Development Reaction.
(§4) The 100% Phosphorylation Control, which consists of a synthetically phosphorylated peptide of the same sequence as the peptide substrate, is designed to allow for the calculation of percent phosphorylation.
(§5) This control is designed to produce a 10-50%* phosphorylated peptide in the Kinase Reaction.
(§6) A known inhibitor control standard curve, 10 point titration, is run for each individual kinase on the same plate as the kinase to ensure the kinase is inhibited within an expected IC50 range previously determined.
(§7) Add the following solutions to a well in a 384-well plate: • 2.5 μL of 4× Test Compound OR (100 nL 100× Test Compound plus 2.4 μL kinase buffer) • 5 μL of 2× Peptide/Kinase (PAK) Mixture • 2.5 μL of 4×ATP Solution • 2. Shake the plate for 30-seconds • 3. Incubate the PAK Kinase Reaction at room temperature for 60-minutes • 4. Add 5 μL of Development Reagent Solution to each well • 5. Shake the plate for 30-seconds • 6. Incubate the Development Reaction for 60-minutes • 7. Determine the fluorescence using a fluorescence plate reader • 8. Analyze the fluorescence data
(§8) SelectScreen® Kinase Profiling Service uses XLfit from IDBS.
(§9) The representative IC50 value with a known inhibitor for each kinase was determined at the ATP bin nearest to the ATP Km app.

PAK4 = PAK4 (Homo sapiens, UniProt O96013); experiment: as above
Protocol: as §1, §2
The 2×PAK4/Ser/Thr 20 mixture is prepared in 50 mM HEPES pH 7.5, 0.01% BRIJ-35, 10 mM MgCl2, 1 mM EGTA. The final 10 μL Kinase Reaction consists of 0.1-0.75 ng PAK4 and 2 μM Ser/Thr 20 in 50 mM HEPES pH 7.5, 0.01% BRIJ-35, 10 mM MgCl2, 1 mM EGTA. After the 1 hour Kinase Reaction incubation, 5 μL of a 1:256 dilution of Development Reagent A is added.
as §3, §4
The minimum Emission Ratio in a screen is established by the 0% Inhibition Control, which contains active kinase. This control is designed to produce a 10-50%* phosphorylated peptide in the Kinase Reaction.
as §6
as §7, with “Bar-coded Corning, low volume NBS, black 384-well plate (Corning Cat. #3676) • 1. Add the” for “Add the”
SelectScreen® Kinase Profiling Service uses XLfit from IDBS. The dose response curve is curve fit to model number 205 (sigmoidal dose-response model).
The table below provides specifications and data around each kinase. The representative IC50 value with a known inhibitor for each kinase was determined at the ATP bin nearest to the ATP Km app.

PAK2 (PAK65) = PAK2 (PAK65) (Homo sapiens, UniProt Q13177); experiment: as above
Protocol: as §1, §2
The 2×PAK2 (PAK65)/Ser/Thr 20 mixture is prepared in 50 mM HEPES pH 7.5, 0.01% BRIJ-35, 10 mM MgCl2, 1 mM EGTA. The final 10 μL Kinase Reaction consists of 0.29-6 ng PAK2 (PAK65) and 2 μM Ser/Thr 20 in 50 mM HEPES pH 7.5, 0.01% BRIJ-35, 10 mM MgCl2, 1 mM EGTA.
as §3, §4, §5, §6, §7, §8, §9

PAK1 = PAK1 (Homo sapiens, UniProt Q13153); experiment: In vitro PAK inhibition assay (SelectScreen, Ser/Thr 19 peptide)
Protocol: as §1, §2
The 2×PAK1/Ser/Thr 19 mixture is prepared in 50 mM HEPES pH 7.5, 0.01% BRIJ-35, 10 mM MgCl2, 1 mM EGTA.
as §3, §4, §5, §6, §7, §8, §9

Sequence of PAK3 (O75914 whole entry): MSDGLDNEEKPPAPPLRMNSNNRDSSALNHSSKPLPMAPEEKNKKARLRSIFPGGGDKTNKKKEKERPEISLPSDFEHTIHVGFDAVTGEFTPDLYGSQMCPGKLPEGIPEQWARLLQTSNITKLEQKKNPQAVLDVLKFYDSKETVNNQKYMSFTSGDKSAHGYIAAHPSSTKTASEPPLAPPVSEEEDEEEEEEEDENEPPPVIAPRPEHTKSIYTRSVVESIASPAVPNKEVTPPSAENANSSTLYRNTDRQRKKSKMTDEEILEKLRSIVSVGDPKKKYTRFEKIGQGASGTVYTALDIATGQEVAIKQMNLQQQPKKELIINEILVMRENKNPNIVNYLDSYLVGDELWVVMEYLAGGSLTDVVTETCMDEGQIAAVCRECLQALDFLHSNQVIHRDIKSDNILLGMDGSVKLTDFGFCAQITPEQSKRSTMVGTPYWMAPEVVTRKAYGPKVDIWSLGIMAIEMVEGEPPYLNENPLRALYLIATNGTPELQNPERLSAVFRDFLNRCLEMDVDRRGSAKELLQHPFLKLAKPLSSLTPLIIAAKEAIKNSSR
Sequence of PAK2 (PAK65) (Q13177 whole entry): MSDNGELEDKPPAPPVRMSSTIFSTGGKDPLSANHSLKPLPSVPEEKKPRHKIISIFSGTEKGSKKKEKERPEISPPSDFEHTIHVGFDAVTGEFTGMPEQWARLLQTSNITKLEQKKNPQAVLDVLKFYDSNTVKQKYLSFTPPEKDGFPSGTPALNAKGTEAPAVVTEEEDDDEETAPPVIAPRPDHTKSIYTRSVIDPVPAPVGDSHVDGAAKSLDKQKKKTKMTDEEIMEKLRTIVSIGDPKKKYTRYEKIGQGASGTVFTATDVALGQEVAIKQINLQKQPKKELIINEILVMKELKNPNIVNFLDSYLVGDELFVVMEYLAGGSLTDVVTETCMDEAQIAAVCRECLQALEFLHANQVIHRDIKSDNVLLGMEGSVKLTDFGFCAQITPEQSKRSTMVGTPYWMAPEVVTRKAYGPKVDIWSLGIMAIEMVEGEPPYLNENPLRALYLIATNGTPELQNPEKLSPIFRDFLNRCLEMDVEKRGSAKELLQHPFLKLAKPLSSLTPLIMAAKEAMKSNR
Sequence of PAK4 (O96013 whole entry): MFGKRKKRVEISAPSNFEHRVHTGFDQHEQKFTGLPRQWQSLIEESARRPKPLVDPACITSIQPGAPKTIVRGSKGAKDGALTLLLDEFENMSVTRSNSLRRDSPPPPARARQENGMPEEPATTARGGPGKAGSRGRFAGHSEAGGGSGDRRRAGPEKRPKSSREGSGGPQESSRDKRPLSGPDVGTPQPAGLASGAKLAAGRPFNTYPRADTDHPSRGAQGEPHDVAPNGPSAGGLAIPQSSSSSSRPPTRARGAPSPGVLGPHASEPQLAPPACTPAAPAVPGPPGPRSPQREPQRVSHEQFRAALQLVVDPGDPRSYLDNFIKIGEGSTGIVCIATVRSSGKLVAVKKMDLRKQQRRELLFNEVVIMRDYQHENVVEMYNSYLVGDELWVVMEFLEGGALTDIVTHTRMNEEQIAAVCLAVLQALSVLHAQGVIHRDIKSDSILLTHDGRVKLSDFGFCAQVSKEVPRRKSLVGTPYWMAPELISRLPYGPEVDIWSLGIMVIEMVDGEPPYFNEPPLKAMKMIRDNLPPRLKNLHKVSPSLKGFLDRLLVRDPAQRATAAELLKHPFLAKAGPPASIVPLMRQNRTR
Sequence of PAK1 (Q13153 whole entry): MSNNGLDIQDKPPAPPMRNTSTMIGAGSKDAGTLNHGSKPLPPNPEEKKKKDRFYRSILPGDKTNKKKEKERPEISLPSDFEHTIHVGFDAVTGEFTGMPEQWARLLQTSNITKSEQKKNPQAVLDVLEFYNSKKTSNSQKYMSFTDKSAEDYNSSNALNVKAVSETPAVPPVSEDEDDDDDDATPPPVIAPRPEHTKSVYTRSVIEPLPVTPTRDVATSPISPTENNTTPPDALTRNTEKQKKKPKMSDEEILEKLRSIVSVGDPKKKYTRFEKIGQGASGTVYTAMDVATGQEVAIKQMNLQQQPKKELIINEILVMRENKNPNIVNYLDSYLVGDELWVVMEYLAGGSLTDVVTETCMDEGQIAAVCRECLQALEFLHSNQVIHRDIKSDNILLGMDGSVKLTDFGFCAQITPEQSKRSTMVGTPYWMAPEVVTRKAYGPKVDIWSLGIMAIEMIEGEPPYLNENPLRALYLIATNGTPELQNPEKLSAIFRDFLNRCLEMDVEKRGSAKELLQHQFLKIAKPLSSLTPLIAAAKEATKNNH

Structure (SMILES)	IC50 (PAK3)	IC50 (PAK4)	IC50 (PAK2 (PAK65))	IC50 (PAK1)
CCn1c(=O)c(-c2ccc(-c3ccc(C)nc3F)cc2Cl)cc2cnc(Nc3ccc(C4CCN(C(C)C)CC4)cc3)nc21	50 to 500 nM	500 to 5000 nM	< 50 nM	50 to 500 nM
CCN1CCC(c2ccc(Nc3ncc4cc(-c5ccc(-c6cccnc6F)cc5Cl)c(=O)n(CC)c4n3)cc2F)CC1	< 50 nM	500 to 5000 nM	< 50 nM	< 50 nM
CCn1c(=O)c(-c2ccc(-c3ccnc(C(=O)NC)c3)cc2Cl)cc2cnc(Nc3ccc(C4CCN5CCCC5C4)cc3)nc21 (stereo not shown)	50 to 500 nM	≥ 5000 nM	50 to 500 nM	50 to 500 nM
CCn1c(=O)c(-c2ccc(-c3ccncc3)s2)cc2cnc(Nc3ccc(N4CCN(C)CC4)cc3)nc21	> 5000 nM	≥ 5000 nM	> 5000 nM	> 5000 nM
CCn1c(=O)c(-c2ccc(-c3cnc(C)s3)cc2Cl)cc2cnc(Nc3ccc(N4CCN(C)CC4)cc3)nc21	< 50 nM	≥ 5000 nM	< 50 nM	< 50 nM
CCn1c(=O)c(-c2ccc(-c3ccnc(C(=O)NC)c3)cc2Cl)cc2cnc(Nc3ccc(C4CCN(C)CC4)cc3)nc21	50 to 500 nM	≥ 5000 nM	50 to 500 nM	< 50 nM
CCn1c(=O)c(-c2nc(C)sc2C)cc2cnc(Nc3ccc(N4CCN(C)CC4)cc3)nc21	> 5000 nM	≥ 5000 nM	500 to 5000 nM	500 to 5000 nM
CCn1c(=O)c(-c2ccc(-c3cccnc3F)cc2Cl)cc2cnc(Nc3ccc(C4CCN(C(C)C)CC4)cc3)nc21	< 50 nM	500 to 5000 nM	< 50 nM	< 50 nM
CCn1c(=O)c(-c2ccc(-c3cccc4[nH]ccc34)cc2Cl)cc2cnc(Nc3ccc(N4CCN(C)CC4)cc3)nc21	50 to 500 nM	≥ 5000 nM	50 to 500 nM	< 50 nM
CCn1c(=O)c(-c2ccc(-c3ccnc(C(=O)NC)c3)cc2Cl)cc2cnc(Nc3ccc(CCN(C)C)cc3)nc21	50 to 500 nM	≥ 5000 nM	50 to 500 nM	50 to 500 nM
CCn1c(=O)c(-c2ccc(-c3cc(NC4CC4)ncn3)cc2Cl)cc2cnc(Nc3ccc(C4CCN(C)CC4)cc3)nc21	50 to 500 nM	≥ 5000 nM	50 to 500 nM	50 to 500 nM
CCn1c(=O)c(-c2ccc(-c3cccc4ncccc34)cc2)cc2cnc(Nc3ccc(N4CCN(C)CC4)cc3)nc21	> 5000 nM	≥ 5000 nM	> 5000 nM	> 5000 nM
Cc1cnc(-c2ccc(Cl)c(-c3cc4cnc(Nc5ccc(C6CCN(C)CC6)cc5)nc4n(C)c3=O)c2)s1	50 to 500 nM	≥ 5000 nM	> 5000 nM	50 to 500 nM
CCn1c(=O)c(-c2ccc(-c3ccnc(C(=O)NC)c3)cc2Cl)cc2cnc(Nc3ccc(N4CCN(C)CC4)cc3)nc21	50 to 500 nM	≥ 5000 nM	< 50 nM	< 50 nM
CCn1c(=O)c(-c2ccc(-c3ccco3)cc2Cl)cc2cnc(Nc3ccc(N4CCN(C)CC4)cc3)nc21	< 50 nM	≥ 5000 nM	< 50 nM	< 50 nM
CCn1c(=O)c(-c2ccc(-c3cncs3)cc2Cl)cc2cnc(Nc3ccc(N4CCN(C(C)C)CC4)c(F)c3)nc21	< 50 nM	≥ 5000 nM	< 50 nM	< 50 nM
CC(=O)N(C)c1ncccc1-c1ccc(Cl)c(-c2cc3cnc(Nc4ccc(C5CCN(C)CC5)cc4)nc3n(C)c2=O)c1	500 to 5000 nM	≥ 5000 nM	> 5000 nM	> 5000 nM
CCn1c(=O)c(-c2ccc(-c3cccnc3C)cc2Cl)cc2cnc(Nc3ccc(C4CCN(C(C)C)CC4)cc3)nc21	50 to 500 nM	≥ 5000 nM	50 to 500 nM	< 50 nM
CCN1CCC(c2ccc(Nc3ncc4cc(-c5ccc(-c6cccnc6F)cc5Cl)c(=O)n(CC)c4n3)cc2)CC1	< 50 nM	50 to 500 nM	< 50 nM	< 50 nM
CCn1c(=O)c(-c2ccc(-c3noc(C(F)(F)F)n3)cc2Cl)cc2cnc(Nc3ccc(N4CCN(C)CC4)cc3)nc21	50 to 500 nM	≥ 5000 nM	< 50 nM	< 50 nM
CCn1c(=O)c(-c2ccc(-c3ccoc3)cc2Cl)cc2cnc(Nc3ccc(N4CCN(C)CC4)cc3)nc21	< 50 nM	≥ 5000 nM	< 50 nM	< 50 nM

Further lines, results first:

IC50 (PAK3)	IC50 (PAK4)	IC50 (PAK2 (PAK65))	IC50 (PAK1)	Structure (SMILES)
< 50 nM	500 to 5000 nM	< 50 nM	< 50 nM	CCn1c(=O)c(-c2ccc(-c3cncnc3)cc2Cl)cc2cnc(Nc3ccc(N4CCN(C)CC4)cc3)nc21
50 to 500 nM	500 to 5000 nM	< 50 nM	< 50 nM	Cc1ncc(-c2ccc(-c3cc4cnc(Nc5ccc(C6CCNCC6)cc5)nc4n(C)c3=O)c(Cl)c2)s1
< 50 nM	≥ 5000 nM	< 50 nM	< 50 nM	CCn1c(=O)c(-c2ccc(-c3cccnc3)cc2Cl)cc2cnc(Nc3ccc(N4CCN(C(C)C)CC4)c(F)c3)nc21
50 to 500 nM	≥ 5000 nM	< 50 nM	< 50 nM	CCn1c(=O)c(-c2cc(C)c(-c3cccnc3C)cc2Cl)cc2cnc(Nc3ccc(C4CCN(C)CC4)cc3)nc21
< 50 nM	500 to 5000 nM	< 50 nM	< 50 nM	CCn1c(=O)c(-c2ccc(-c3cccnc3)cc2Cl)cc2cnc(Nc3ccc(C4CCNC4)cc3)nc21 (stereo not shown)
50 to 500 nM	≥ 5000 nM	< 50 nM	< 50 nM	CCn1c(=O)c(-c2ccc(-c3ccc(C)s3)cc2Cl)cc2cnc(Nc3ccc(N4CCN(C)CC4)cc3)nc21
50 to 500 nM	≥ 5000 nM	50 to 500 nM	< 50 nM	CCn1c(=O)c(-c2ccc(-c3cscn3)cc2Cl)cc2cnc(Nc3ccc(N4CCN(C)CC4)cc3)nc21
50 to 500 nM	≥ 5000 nM	50 to 500 nM	< 50 nM	CCn1c(=O)c(-c2ccc(-c3ccnc(C)c3)cc2Cl)cc2cnc(Nc3ccc(C4CCN5CCCC5C4)cc3)nc21 (stereo not shown)
50 to 500 nM	≥ 5000 nM	50 to 500 nM	< 50 nM	CCn1c(=O)c(-c2ccc(-c3ccc(F)nc3C)cc2Cl)cc2cnc(Nc3ccc(C4CCNCC4)cc3)nc21
> 5000 nM	≥ 5000 nM	500 to 5000 nM	500 to 5000 nM	CN1CCC(c2ccc(Nc3ncc4cc(-c5cc(-c6cccnc6N(C)C)ccc5Cl)c(=O)n(C)c4n3)cc2)CC1
< 50 nM	50 to 500 nM	< 50 nM	< 50 nM	CCn1c(=O)c(-c2ccc(-c3ccc(OC)nc3)cc2Cl)cc2cnc(Nc3ccc(N4CCN(C)CC4)cc3)nc21
< 50 nM	500 to 5000 nM	< 50 nM	< 50 nM	CCn1c(=O)c(-c2ccc(-c3cnc(C)s3)cc2Cl)cc2cnc(Nc3ccc(CCN(C)C)cc3)nc21
< 50 nM	≥ 5000 nM	< 50 nM	< 50 nM	CCN1CCC(c2ccc(Nc3ncc4cc(-c5ccc(-c6noc(C)n6)cc5Cl)c(=O)n(CC)c4n3)cc2F)CC1
